Residues, ends and D or L forms follow the SMILES beside them.
What was measured:
Coagulation factor XI [1] = molecular target: T1, Coagulation factor XI (Homo sapiens, UniProt P03951); experiment: Inhibition of activated beta-factor 11 (unknown origin) using Bz-FVRpNA as substrate after 30 mins
Plasma kallikrein [2] = molecular target: T2, Plasma kallikrein (Homo sapiens, UniProt P03952); experiment: Inhibition of plasma KLK (unknown origin) using Ac-NLTR-pNA as substrate after 30 mins
[3] = molecular target: Tissue-type plasminogen activator (Homo sapiens, UniProt P00750); experiment: Inhibition of tPA (unknown origin) using Z-Pyr-Gly-Arg-MCA as substrate after 30 mins relative to untreated control
Prothrombin [4] = molecular target: T3, Prothrombin (Homo sapiens, UniProt P00734); experiment: Inhibition of human thrombin using Ac-ATPR-pNA as substrate after 30 mins
Cathepsin G = molecular target: T4, Cathepsin G (Homo sapiens, UniProt P08311); experiment: Inhibition of human cathepsin G using Suc-AAPF-MCA as substrate after 30 mins
T4 sequence (P08311 whole entry): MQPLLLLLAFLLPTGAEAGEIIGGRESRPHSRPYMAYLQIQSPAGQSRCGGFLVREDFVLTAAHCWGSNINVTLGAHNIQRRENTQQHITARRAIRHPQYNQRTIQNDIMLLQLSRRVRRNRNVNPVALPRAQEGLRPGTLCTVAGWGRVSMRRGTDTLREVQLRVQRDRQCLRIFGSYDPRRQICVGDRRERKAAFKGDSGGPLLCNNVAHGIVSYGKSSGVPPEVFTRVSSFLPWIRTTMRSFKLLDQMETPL

[5] = molecular target: T5, Suppressor of tumorigenicity 14 protein (Homo sapiens, UniProt Q9Y5Y6); experiment: Inhibition of matriptase (unknown origin) using Boc-QAR-MCA as substrate after 30 mins
T5 sequence (Q9Y5Y6 whole entry): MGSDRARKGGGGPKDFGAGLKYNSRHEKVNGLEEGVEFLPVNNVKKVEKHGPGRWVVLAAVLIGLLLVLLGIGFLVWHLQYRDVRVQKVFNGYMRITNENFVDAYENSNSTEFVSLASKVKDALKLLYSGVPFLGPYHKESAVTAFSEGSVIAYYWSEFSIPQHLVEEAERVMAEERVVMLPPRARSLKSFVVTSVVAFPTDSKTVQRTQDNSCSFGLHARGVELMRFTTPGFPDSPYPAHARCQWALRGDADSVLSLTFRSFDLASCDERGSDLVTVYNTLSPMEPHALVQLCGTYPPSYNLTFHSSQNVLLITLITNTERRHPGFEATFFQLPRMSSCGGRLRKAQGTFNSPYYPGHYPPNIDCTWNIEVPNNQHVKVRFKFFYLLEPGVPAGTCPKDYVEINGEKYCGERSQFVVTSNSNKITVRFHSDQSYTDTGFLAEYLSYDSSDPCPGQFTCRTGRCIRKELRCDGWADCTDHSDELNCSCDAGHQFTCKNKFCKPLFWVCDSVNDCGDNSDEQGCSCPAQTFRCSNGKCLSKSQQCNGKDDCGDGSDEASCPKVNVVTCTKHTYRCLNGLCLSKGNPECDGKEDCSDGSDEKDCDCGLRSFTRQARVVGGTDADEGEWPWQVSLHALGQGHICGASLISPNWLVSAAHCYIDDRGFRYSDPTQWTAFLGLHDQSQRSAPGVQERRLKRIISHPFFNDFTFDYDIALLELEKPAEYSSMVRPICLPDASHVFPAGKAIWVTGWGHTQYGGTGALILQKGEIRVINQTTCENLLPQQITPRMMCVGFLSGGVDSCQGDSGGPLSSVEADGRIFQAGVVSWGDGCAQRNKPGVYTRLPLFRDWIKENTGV

[6] = molecular target: Urokinase-type plasminogen activator (Homo sapiens, UniProt P00749); experiment: Inhibition of uPA (unknown origin) using Z-Pyr-Gly-Arg-MCA as substrate after 30 mins relative to untreated control
Prothrombin [7] = molecular target: T3, Prothrombin; experiment: Inhibition of human thrombin using Ac-ATPR-pNA as substrate after 30 mins relative to untreated control
Coagulation factor IX = Coagulation factor IX (Homo sapiens, UniProt P00740); experiment: Inhibition of activated beta-factor 9 (unknown origin) using Boc-QGR-MCA as substrate after 30 mins relative to untreated control
Serine protease 1 = molecular target: T6, Serine protease 1 (Bos taurus, UniProt P00760); experiment: Inhibition of bovine cationic trypsin using Bz-FVR-pNA as substrate after 30 mins
T6 sequence (P00760 whole entry): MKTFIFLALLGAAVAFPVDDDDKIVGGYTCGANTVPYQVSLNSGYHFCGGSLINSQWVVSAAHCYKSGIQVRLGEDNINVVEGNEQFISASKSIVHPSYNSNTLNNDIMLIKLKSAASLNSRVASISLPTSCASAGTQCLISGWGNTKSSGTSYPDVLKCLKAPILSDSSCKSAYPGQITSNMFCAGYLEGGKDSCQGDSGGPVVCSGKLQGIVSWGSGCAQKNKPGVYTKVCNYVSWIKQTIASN

Coagulation factor X = Coagulation factor X (Homo sapiens, UniProt P00742); experiment: Inhibition of activated factor 10 (unknown origin) using Ac-QRSR-pNA as substrate after 30 mins relative to untreated control
Coagulation factor XII [8] = molecular target: T7, Coagulation factor XII (Homo sapiens, UniProt P00748); experiment: Inhibition of activated beta-factor 12 (unknown origin) using Ac-QRFR-pNA as substrate after 30 mins relative to untreated control
T7 sequence (P00748 whole entry): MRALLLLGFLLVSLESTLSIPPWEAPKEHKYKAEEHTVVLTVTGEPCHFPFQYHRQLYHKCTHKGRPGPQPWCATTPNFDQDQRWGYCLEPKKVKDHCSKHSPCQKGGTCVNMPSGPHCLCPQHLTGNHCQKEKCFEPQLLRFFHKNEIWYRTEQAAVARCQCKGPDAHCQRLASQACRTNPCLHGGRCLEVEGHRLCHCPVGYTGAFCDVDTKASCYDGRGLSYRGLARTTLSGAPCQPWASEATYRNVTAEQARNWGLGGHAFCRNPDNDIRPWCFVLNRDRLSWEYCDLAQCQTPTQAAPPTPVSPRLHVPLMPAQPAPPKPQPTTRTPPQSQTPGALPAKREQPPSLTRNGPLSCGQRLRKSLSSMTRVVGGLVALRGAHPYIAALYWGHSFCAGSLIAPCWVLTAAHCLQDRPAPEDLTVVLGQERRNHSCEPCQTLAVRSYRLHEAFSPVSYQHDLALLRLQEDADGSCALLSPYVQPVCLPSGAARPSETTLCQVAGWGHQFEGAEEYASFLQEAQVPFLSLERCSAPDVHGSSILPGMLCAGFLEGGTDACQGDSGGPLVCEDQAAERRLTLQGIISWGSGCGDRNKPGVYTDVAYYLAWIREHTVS

Plasminogen = Plasminogen (Homo sapiens, UniProt P00747); experiment: Inhibition of human plasmin using Ac-RM(O2)YR-pNA as substrate after 30 mins
[9] = molecular target: T5, Suppressor of tumorigenicity 14 protein; experiment: Inhibition of matriptase (unknown origin) using Boc-QAR-MCA as substrate after 30 mins relative to untreated control
Coagulation factor XI [10] = molecular target: T1, Coagulation factor XI; experiment: Inhibition of activated beta-factor 11 (unknown origin) using Bz-FVRpNA as substrate after 30 mins relative to untreated control
Plasma kallikrein [11] = molecular target: T2, Plasma kallikrein; experiment: Inhibition of plasma KLK (unknown origin) using Ac-NLTR-pNA as substrate after 30 mins relative to untreated control
Coagulation factor XII [12] = molecular target: T7, Coagulation factor XII; experiment: Inhibition of human beta-factor 12a using Ac-QRFR-pNA as substrate after 30 mins
[13] = molecular target: T5, Suppressor of tumorigenicity 14 protein; experiment: Inhibition of recombinant human matriptase catalytic domain pre-incubated for 60 mins before Boc QAR-AMC substrate addition
Trypsin (Sus scrofa) [14] = molecular target: Trypsin (Sus scrofa) (UniProt P00761); experiment: Inhibition of porcine trypsin assessed as dissociation rate constant using peptide-pNA as substrate
[15] = Inhibition of bovine trypsin pre-incubated for 60 mins before tos-GPR-AMC substrate addition; parameters: species or system Bos taurus
Trypsin (Sus scrofa) [16] = molecular target: Trypsin (Sus scrofa) (UniProt P00761); experiment: Inhibition of porcine trypsin assessed as association rate constant using peptide-pNA as substrate

T1 sequence (P03951 19-387 limits assumed): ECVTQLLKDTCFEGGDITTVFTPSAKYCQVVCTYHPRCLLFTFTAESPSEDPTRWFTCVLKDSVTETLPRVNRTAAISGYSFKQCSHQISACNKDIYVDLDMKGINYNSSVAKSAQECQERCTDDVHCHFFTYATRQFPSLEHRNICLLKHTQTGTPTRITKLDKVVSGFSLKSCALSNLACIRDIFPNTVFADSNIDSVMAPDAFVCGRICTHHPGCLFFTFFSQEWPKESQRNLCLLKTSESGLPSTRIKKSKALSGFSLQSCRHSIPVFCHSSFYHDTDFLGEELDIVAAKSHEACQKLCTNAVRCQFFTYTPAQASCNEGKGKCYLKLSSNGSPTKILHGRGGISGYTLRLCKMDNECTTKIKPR
T1 sequence (P03951 388-625 limits assumed): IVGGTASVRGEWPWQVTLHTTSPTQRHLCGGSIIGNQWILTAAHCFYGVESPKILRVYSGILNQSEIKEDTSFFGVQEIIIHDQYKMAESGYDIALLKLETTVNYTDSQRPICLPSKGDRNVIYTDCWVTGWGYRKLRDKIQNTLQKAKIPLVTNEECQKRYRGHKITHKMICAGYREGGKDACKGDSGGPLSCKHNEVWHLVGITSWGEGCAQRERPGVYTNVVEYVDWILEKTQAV
Tissue-type plasminogen activator, sequence (P00750 whole entry): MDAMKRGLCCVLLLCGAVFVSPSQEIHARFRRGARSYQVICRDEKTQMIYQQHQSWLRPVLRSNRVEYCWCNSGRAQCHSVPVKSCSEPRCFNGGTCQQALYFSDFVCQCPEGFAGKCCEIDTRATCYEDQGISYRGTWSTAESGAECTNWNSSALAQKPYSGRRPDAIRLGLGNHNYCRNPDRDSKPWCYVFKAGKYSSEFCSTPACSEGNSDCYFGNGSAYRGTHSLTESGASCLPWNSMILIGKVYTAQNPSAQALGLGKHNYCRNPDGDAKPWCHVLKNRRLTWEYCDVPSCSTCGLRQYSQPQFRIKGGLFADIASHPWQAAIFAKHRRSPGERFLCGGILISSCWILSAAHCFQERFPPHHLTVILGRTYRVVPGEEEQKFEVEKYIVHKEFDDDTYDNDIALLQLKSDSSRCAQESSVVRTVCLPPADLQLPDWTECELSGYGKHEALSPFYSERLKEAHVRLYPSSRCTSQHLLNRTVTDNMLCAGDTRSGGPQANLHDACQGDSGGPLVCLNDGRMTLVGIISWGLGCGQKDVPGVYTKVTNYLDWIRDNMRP
Trypsin (Sus scrofa), sequence (P00761 whole entry): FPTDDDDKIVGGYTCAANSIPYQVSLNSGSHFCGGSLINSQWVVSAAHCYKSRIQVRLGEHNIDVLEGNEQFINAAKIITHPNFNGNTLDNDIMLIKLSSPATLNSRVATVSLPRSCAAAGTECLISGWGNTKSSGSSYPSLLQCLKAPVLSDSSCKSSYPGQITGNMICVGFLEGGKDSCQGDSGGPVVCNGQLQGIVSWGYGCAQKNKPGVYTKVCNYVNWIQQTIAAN
Coagulation factor X, sequence (P00742 41-179 limits assumed): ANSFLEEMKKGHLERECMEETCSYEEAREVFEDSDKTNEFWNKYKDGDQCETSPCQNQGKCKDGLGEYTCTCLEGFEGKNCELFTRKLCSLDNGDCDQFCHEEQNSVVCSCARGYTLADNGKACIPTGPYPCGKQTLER
Coagulation factor X, sequence (P00742 235-488 limits assumed): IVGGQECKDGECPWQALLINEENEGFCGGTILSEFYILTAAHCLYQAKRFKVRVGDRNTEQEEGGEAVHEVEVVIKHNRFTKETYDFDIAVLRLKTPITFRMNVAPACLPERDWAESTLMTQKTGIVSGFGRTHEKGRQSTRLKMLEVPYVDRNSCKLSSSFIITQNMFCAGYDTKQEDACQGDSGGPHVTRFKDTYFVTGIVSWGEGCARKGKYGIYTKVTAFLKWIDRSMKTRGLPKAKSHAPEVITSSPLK
T2 sequence (P03952 20-390 limits assumed): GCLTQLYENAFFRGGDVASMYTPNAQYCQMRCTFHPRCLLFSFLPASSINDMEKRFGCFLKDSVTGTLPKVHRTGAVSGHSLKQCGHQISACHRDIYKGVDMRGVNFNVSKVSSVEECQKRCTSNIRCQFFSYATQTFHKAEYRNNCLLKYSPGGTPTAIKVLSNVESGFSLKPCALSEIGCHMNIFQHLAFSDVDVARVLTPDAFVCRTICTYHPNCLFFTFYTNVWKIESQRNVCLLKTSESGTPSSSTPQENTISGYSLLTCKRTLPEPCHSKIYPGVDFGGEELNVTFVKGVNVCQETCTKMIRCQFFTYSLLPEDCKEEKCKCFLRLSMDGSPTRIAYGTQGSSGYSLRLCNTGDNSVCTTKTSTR
T2 sequence (P03952 391-638 limits assumed): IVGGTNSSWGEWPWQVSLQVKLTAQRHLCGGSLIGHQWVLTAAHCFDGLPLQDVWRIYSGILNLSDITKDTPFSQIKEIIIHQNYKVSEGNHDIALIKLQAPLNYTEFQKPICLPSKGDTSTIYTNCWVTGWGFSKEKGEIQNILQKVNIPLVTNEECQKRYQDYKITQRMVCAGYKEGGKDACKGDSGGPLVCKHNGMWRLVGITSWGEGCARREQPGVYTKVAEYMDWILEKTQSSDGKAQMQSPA
Coagulation factor IX, sequence (P00740 47-191 limits assumed): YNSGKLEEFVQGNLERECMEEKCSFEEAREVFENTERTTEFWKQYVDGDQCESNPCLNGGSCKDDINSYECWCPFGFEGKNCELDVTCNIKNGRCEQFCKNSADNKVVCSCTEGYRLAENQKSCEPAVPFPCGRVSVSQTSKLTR
Coagulation factor IX, sequence (P00740 227-461 limits assumed): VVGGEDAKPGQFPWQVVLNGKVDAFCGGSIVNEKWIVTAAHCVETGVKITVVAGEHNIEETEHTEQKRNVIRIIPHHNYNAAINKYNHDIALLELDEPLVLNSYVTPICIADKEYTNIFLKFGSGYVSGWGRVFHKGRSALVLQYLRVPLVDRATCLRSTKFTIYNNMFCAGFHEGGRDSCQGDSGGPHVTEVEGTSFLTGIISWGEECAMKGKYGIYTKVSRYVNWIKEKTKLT
Plasminogen, sequence (P00747 97-580 limits assumed): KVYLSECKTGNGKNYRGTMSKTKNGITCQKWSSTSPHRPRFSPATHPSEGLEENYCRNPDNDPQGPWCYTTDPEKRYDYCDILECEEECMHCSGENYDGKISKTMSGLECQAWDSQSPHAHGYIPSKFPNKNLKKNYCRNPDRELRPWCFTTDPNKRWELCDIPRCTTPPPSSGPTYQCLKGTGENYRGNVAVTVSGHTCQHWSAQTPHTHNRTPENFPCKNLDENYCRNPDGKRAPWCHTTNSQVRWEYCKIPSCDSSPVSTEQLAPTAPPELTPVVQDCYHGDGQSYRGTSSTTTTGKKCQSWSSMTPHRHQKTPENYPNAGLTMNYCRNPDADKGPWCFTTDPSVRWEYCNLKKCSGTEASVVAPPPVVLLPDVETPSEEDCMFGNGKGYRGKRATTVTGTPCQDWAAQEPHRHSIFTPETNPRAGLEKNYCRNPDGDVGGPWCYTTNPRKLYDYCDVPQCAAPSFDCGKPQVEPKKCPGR
Plasminogen, sequence (P00747 581-810 limits assumed): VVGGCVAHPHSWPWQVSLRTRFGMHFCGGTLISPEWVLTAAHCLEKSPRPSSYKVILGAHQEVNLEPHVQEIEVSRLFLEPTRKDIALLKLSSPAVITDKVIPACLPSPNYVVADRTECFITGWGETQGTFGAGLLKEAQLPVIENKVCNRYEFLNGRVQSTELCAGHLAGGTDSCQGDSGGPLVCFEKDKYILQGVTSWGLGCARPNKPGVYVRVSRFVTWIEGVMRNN

SMILES	Ki [3] [µM]	Ki (Cathepsin G) [µM]	Ki [6] [µM]	Ki (Prothrombin [7]) [µM]	Ki (Coagulation factor IX) [µM]	Ki (Serine protease 1) [µM]	Ki (Coagulation factor X) [µM]	Ki (Coagulation factor XII [8]) [µM]	Ki (Plasminogen) [nM]	also measured
CC[C@H](C)[C@@H]1NC(=O)[C@@H]2CCCN2C(=O)[C@@H]2CCCN2C(=O)[C@H]([C@@H](C)CC)NC(=O)[C@H](CO)NC(=O)[C@H](CCCCN)NC(=O)[C@H](Cc2ccc(O)cc2)NC(=O)[C@@H]2CSSC[C@H](NC1=O)C(=O)N[C@@H](Cc1ccccc1)C(=O)N1CCC[C@H]1C(=O)N[C@@H](CC(=O)O)C(=O)NCC(=O)N[C@@H](CCCNC(=N)N)C(=O)N2 (HELM PEPTIDE1{C.F.P.D.G.R.C.Y.K.S.I.P.P.I}$PEPTIDE1,PEPTIDE1,1:R3-7:R3|PEPTIDE1,PEPTIDE1,1:R1-14:R2$$$V2.0)	> 50	7.8	> 50	250	> 50	0.011	> 50	> 50	0.14	Ki (Coagulation factor XI [1]): 13 µM; Ki (Plasma kallikrein [2]): 32 µM; Ki (Prothrombin [4]): 250 µM; Ki [5]: 480 µM
CC[C@H](C)[C@@H]1NC(=O)[C@@H]2CCCN2C(=O)[C@@H]2CCCN2C(=O)[C@H](CCCNC(=N)N)NC(=O)[C@H](CO)NC(=O)[C@H](CCCCN)NC(=O)[C@H](Cc2ccc(O)cc2)NC(=O)[C@@H]2CSSC[C@H](NC1=O)C(=O)N[C@@H](Cc1ccccc1)C(=O)N1CCC[C@H]1C(=O)N[C@@H](CC(=O)O)C(=O)NCC(=O)N[C@@H](CCCNC(=N)N)C(=O)N2 (HELM PEPTIDE1{C.F.P.D.G.R.C.Y.K.S.R.P.P.I}$PEPTIDE1,PEPTIDE1,1:R3-7:R3|PEPTIDE1,PEPTIDE1,1:R1-14:R2$$$V2.0)	> 50	13	> 50	> 50	> 50	0.028	> 50	> 50	0.041	Ki [9]: > 50 µM; Ki (Coagulation factor XI [10]): > 50 µM; Ki (Plasma kallikrein [11]): > 50 µM
CC[C@H](C)[C@@H]1NC(=O)[C@@H]2CCCN2C(=O)[C@@H]2CCCN2C(=O)[C@H]([C@@H](C)CC)NC(=O)[C@H](CO)NC(=O)[C@H](CCCCN)NC(=O)[C@H]([C@@H](C)O)NC(=O)[C@@H]2CSSC[C@H](NC1=O)C(=O)N[C@@H](Cc1ccccc1)C(=O)N1CCC[C@H]1C(=O)N[C@@H](CC(=O)O)C(=O)NCC(=O)N[C@@H](CCCNC(=N)N)C(=O)N2										Ki (Coagulation factor XII [12]): 130 µM; Ki [13]: 0.2 µM; K (Trypsin (Sus scrofa) [14]): 0.5 ×10⁻⁴ /s; Ki [15]: 0.017 nM; K (Trypsin (Sus scrofa) [16]): 0.2 ×10⁷ /M/s
